Columns and labels:
[1] = system: dihydrofolate reductase (DHFR); conditions: one representative experiment out of 5; 37° C., pH 7.0, 20 μM dihydrofolate, 100 μM NADPH
carcinoma W256 = assay: Walker-256 rat tumor model; assay type: in vivo
Description: Compounds of formula I were also active in vivo against the carcinoma W256 (TGI=28%), most likely due to the higher solubility and thus passive transport into the tumor compared with other anti-folate agents. Median survival times for saline-treated control animals and animals receiving Compound 4 (1 mg/kg) intraperitoneally in the Walker-256 rat tumor model were 22.5 and >46.3 days, respectively.

L 1210 cells = assay: Tumor inhibition in mice, subcutaneous L1210 cells; assay type: in vivo; conditions: DBA/2 mice, L1210 s.c.; 0.5 mg/kg; saline control 6.7 days
Description: The ability of compounds of formula I to inhibit tumor growth in mice was tested as follows. 5×10^6 L 1210 cells were injected subcutaneously in the axillary region of DBA/2 mice (groups of 8 mice/treatment). Following intraperitoneal administration of saline solution only or saline solution containing a compound of formula I the length and width of the control tumor (receiving only saline) was measured at the indicated time and compared to those of animals receiving test compound to calculate the percentage of inhibition. Intraperitoneal administration of a saline solution containing the test compound, daily for 6 days, led to 60% tumor-free long term survivors (tumor weight zero). Median survival times for saline-treated control animals and animals receiving Compound 4 (0.5 mg/kg) were 6.7 and 15.6 days, respectively. Oral administration of the compound required a higher dosage of the inhibitor and led to a less-marked, but still significant reduction of the tumor weight and 25% long-term survivors as compared with the saline-treated control group.

[2] = 0.25 mg/kg - 3 doses every 4 days
[3] = 0.5 mg/kg - 3 doses every 4 days

Substance: N-[4-[[2,4-diamino-6-pteridinyl)methyl]amino]benzoyl]pseudoglutamic acid [Compound 4]
- Relative IC50 (IC50(Compound)/IC50(MTX)) [1]: 0.75
- No. animals surviving at day 30 days post-transplant (carcinoma W256; 0.1 mg/kg - 5 doses every day): 10/10
- Tumor volume (cm^3) ± SE (carcinoma W256; 0.1 mg/kg - 5 doses every day): 14.5 ± 3.8 cm^3
- No. animals surviving at day 30 days post-transplant (carcinoma W256; [2]): 8/10
- Tumor volume (cm^3) ± SE (carcinoma W256; [2]): 23 ± 3.5 cm^3
- No. animals surviving at day 30 days post-transplant (carcinoma W256; [3]): 9/10
- Tumor volume (cm^3) ± SE (carcinoma W256; [3]): 13.4 ± 3.07 cm^3
- No. animals surviving at day 30 days post-transplant (carcinoma W256; 1 mg/kg - one dose): 8/10
- Tumor volume (cm^3) ± SE (carcinoma W256; 1 mg/kg - one dose): 17.1 ± 3.3 cm^3
- Median survival time (carcinoma W256; Walker-256 rat tumor model, 1 mg/kg intraperitoneally, saline control 22.5 days): > 46.3 days
- Median survival time (L 1210 cells): 15.6 days

— patent US8518954B2, “Inhibitors of folic acid-dependent enzymes” (priority 2005, dated 2013)
